{
  "source": "patent US6727264B1",
  "about": "(Synaptic Pharmaceutical Corporation, priority 2001, dated 2004)",
  "data": [
    {"target": "rat MCH-1 (Rattus norvegicus, UniProt P97639)", "sequence (P97639 whole entry)": "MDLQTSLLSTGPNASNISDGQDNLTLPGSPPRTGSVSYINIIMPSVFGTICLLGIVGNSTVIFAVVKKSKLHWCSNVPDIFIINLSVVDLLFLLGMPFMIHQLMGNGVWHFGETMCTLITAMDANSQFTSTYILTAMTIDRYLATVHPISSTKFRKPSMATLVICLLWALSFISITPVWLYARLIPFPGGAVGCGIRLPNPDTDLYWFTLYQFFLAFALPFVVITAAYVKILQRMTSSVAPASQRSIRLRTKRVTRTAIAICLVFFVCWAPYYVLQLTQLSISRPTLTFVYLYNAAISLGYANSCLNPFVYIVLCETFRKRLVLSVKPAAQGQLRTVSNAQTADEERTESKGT", "experiment": "Radioligand binding assay at cloned rat MCH1 receptor ([3H] Compound A)", "design": "host or cells: Peak rapid 293 (Peakr293) cells, transient calcium phosphate transfection, membranes", "conditions": "cloned rat MCH1 receptor, membranes from Peakr293 cells, 0.08 nM [3H] Compound A; read-out: Ki (nM) rMCH1", "units": {"Ki": "nM"}, "values": [
      {"smiles": "Cc1onc(-c2c(Cl)cccc2Cl)c1C(=O)NCCCN1CCC(c2cccc(NC(=O)C(C)C)c2)CC1", "note": "[Example 332]", "Ki": 29},
      {"smiles": "Cc1onc(-c2ccccc2Cl)c1C(=O)OCCCCN1CCC(c2cccc(NC(=O)C(C)C)c2)CC1", "note": "[Example 292, 4-{4-[3-(ISOBUTYRYLAMINO)PHENYL]-1-PIPERIDINYL}BUTYL 3-(2-CHLOROPHENYL)-5-METHYL-4-ISOXAZOLECARBOXYLATE]", "Ki": 18.4},
      {"smiles": "Cc1ccc(Oc2cccc(CN3CCC(c4cccc(NC(=O)C(C)C)c4)CC3)c2)cc1", "note": "[Example 208]", "Ki": 30.8},
      {"smiles": "COc1ccc(C(CCN2CCC(c3cccc(NC(=O)C(C)C)c3)CC2)Oc2ccc(C(F)(F)F)cc2)cc1", "note": "(stereo not drawn) [Example 182]", "Ki": 101},
      {"smiles": "CC(C)C(=O)Nc1cccc(C2CCN(CCC(Oc3ccc(Cl)c(Cl)c3)c3ccc(F)cc3)CC2)c1", "note": "(stereo not drawn) [Example 136]", "Ki": 15.9},
      {"smiles": "CC(=O)c1cccc(OC(CCN2CCC(c3cccc(NC(=O)C(C)C)c3)CC2)c2ccc3c(c2)CCC3)c1", "note": "(stereo not drawn) [Example 155]", "Ki": 7.4},
      {"smiles": "CC(C)C(=O)Nc1cccc(C2CCN(C[C@H](C)COc3ccc(Cl)cc3)CC2)c1", "note": "[Example 363]", "Ki": 31.6},
      {"smiles": "CC(C)C(=O)Nc1cccc(C2CCN(Cc3ccc(-c4csnn4)cc3)CC2)c1", "note": "[Example 263]", "Ki": 156},
      {"smiles": "CC(C)C(=O)Nc1cccc(C2CCN(Cc3ccc4c(c3)OCCCO4)CC2)c1", "note": "[Example 234]", "Ki": 116},
      {"smiles": "Cc1onc(-c2c(F)cccc2Cl)c1C(=O)OCCCCN1CCC(c2cccc(NC(=O)C(C)C)c2)CC1", "note": "[Example 291, 4-{4-[3-(ISOBUTYRYLAMINO)PHENYL]-1-PIPERIDINYL}BUTYL 3-(2-CHLORO-6-FLUOROPHENYL)-5-METHYL-4-ISOXAZOLECARBOXYLATE]", "Ki": 24.3},
      {"smiles": "CC(C)C(=O)Nc1cccc(C2CCN(Cc3cccc(Oc4ccc(Cl)cc4)c3)CC2)c1", "note": "[Example 210]", "Ki": 23.3},
      {"smiles": "CC(C)C(=O)Nc1cccc(C2CCN(CCC(=O)c3ccc(Br)cc3)CC2)c1", "note": "[Example 117]", "Ki": 19},
      {"smiles": "CC(C)C(=O)Nc1cccc(C2CCN(Cc3c[nH]nc3-c3cccs3)CC2)c1", "note": "[Example 235]", "Ki": 412},
      {"smiles": "Cc1ccccc1OC(CCN1CCC(c2cccc(NC(=O)C(C)C)c2)CC1)c1ccc(Br)cc1", "note": "(stereo not drawn) [Example 133]", "Ki": 14.1},
      {"smiles": "CC(C)C(=O)Nc1cccc(C2CCN(Cc3c[nH]nc3-c3ccc(C(F)(F)F)cc3)CC2)c1", "note": "[Example 216]", "Ki": 818},
      {"smiles": "COc1ccc(OCCCCN2CCC(c3cccc(NC(=O)C(C)C)c3)CC2)cc1", "note": "[Example 377]", "Ki": 712},
      {"smiles": "CC(C)C(=O)Nc1cccc(C2CCN(CCC(Oc3ccc(F)cc3)c3ccc(Cl)cc3)CC2)c1", "note": "(stereo not drawn) [Example 183]", "Ki": 4},
      {"smiles": "CC(C)C(=O)Nc1cccc(C2CCN(Cc3ccc(-n4cncn4)cc3)CC2)c1", "note": "[Example 217]", "Ki": 300},
      {"smiles": "CC(C)C(=O)Nc1cccc(C2CCN(CCCCCc3c(-c4ccccc4)n(C)c4ccccc34)CC2)c1", "note": "[Example 395]", "Ki": 2.4},
      {"smiles": "CC(C)C(=O)Nc1cccc(C2CCN(Cc3ccc(N4CCOCC4)c([N+](=O)[O-])c3)CC2)c1", "note": "[Example 219]", "Ki": 68.8}
    ]},
    {"target": "rat MCH-1 (Rattus norvegicus, UniProt P97639)", "experiment": "Radioligand binding assay at cloned rat MCH1 receptor ([3H] Compound A)", "design": "host or cells: Peak rapid 293 (Peakr293) cells, transient calcium phosphate transfection, membranes", "conditions": "cloned rat MCH1 receptor; 0.08 nM [3H] Compound A; Peakr293 cell membranes; read-out: Ki (nM) rMCH1", "units": {"Ki": "nM"}, "values": [
      {"smiles": "CC(C)C(=O)Nc1cccc(C2CCN(CCCCCC(Oc3ccc(Cl)cc3)c3ccc(Cl)cc3)CC2)c1", "note": "(stereo not drawn) [Example 899]", "Ki": 18},
      {"smiles": "Cc1cccc2c(CCCN3CCC(c4cccc(NC(=O)C(C)C)c4)CC3)c(-c3cccc([N+](=O)[O-])c3)[nH]c12", "note": "[Example 773]", "Ki": 23.8},
      {"smiles": "CC(C)C(=O)Nc1cccc(C2CCN(Cc3c[nH]c4c([N+](=O)[O-])cccc34)CC2)c1", "note": "[Example 513]", "Ki": 179},
      {"smiles": "CCc1ccc(-c2cccc3c(CN4CCC(c5cccc(NC(=O)C(C)C)c5)CC4)c[nH]c23)cc1", "note": "[Example 518]", "Ki": 226},
      {"smiles": "CC(C)C(=O)Nc1cccc(C2CCN(Cc3cn(-c4ccccc4[N+](=O)[O-])c4ccccc34)CC2)c1", "note": "[Example 446]", "Ki": 17.9},
      {"smiles": "CC(C)C(=O)Nc1cccc(C2CCN(CCCCCNC(=O)C(c3ccccc3)c3ccccc3)CC2)c1", "note": "[Example 654]", "Ki": 43.6},
      {"smiles": "CC(C)C(=O)Nc1cccc(C2CCN(CCCc3cn(C)c4ccccc34)CC2)c1", "note": "[Example 414]", "Ki": 2.9},
      {"smiles": "CC(C)C(=O)Nc1cccc(C2CCN(CCCc3c(-c4ccc([N+](=O)[O-])cc4)n(C)c4ccccc34)CC2)c1", "note": "[Example 788]", "Ki": 11.1},
      {"smiles": "CC(C)C(=O)Nc1cccc(C2CCN(CC[C@H](NC(=O)Nc3ccccc3F)c3ccccc3)CC2)c1", "note": "[Example 607]", "Ki": 142},
      {"smiles": "CCCC(=O)Nc1ccc(C2CCN(Cc3cn(-c4ccc(C)cc4)c4ccccc34)CC2)cc1", "note": "[Example 423]", "Ki": 405},
      {"smiles": "Cc1cccc2c(CCCN3CCC(c4cccc(NC(=O)C(C)C)c4)CC3)c(-c3cccc(Br)c3)[nH]c12", "note": "[Example 762]", "Ki": 6.3},
      {"smiles": "O=C(Nc1cccc(C2CCN(CCCCSc3ccccc3)CC2)c1)C1CC1", "note": "[Example 584]", "Ki": 51.8},
      {"smiles": "CC(C)C(=O)Nc1cccc(C2CCN(CCCCSc3ccccc3)CC2)c1", "note": "[Example 585]", "Ki": 37.2},
      {"smiles": "CC(C)C(=O)Nc1cccc(C2CCN(CCCCCC(Oc3ccc(Br)cc3)c3ccccc3)CC2)c1", "note": "(stereo not drawn) [Example 896]", "Ki": 30.3},
      {"smiles": "CC(C)C(=O)Nc1cccc(C2CCN(Cc3c[nH]c4cc(OCc5ccccc5)ccc34)CC2)c1", "note": "[Example 496]", "Ki": 288},
      {"smiles": "CC(C)C(=O)Nc1cccc(C2CCN(CCCCCCNC(=O)c3scc(S(=O)(=O)C(C)C)c3Cl)CC2)c1", "note": "[Example 630]", "Ki": 202},
      {"smiles": "CC(C)C(=O)Nc1cccc(C2CCN(CC[C@H](NC(=O)Nc3ccccc3[N+](=O)[O-])c3ccccc3)CC2)c1", "note": "[Example 610]", "Ki": 530},
      {"smiles": "CCC(=O)Nc1cccc(C2CCN(CCCCSc3ccccc3)CC2)c1", "note": "[Example 583]", "Ki": 55.5},
      {"smiles": "CC(C)C(=O)Nc1cccc(C2CCN(CCCCCCNC(=O)Nc3ccc4ccccc4c3)CC2)c1", "note": "[Example 636]", "Ki": 40.8},
      {"smiles": "CC(C)C(=O)Nc1cccc(C2CCN(CCCc3c(-c4cccc([N+](=O)[O-])c4)n(-c4ccccc4)c4ccccc34)CC2)c1", "note": "[Example 771]", "Ki": 189},
      {"smiles": "Cc1ccccc1-c1ccc2c(CN3CCC(c4cccc(NC(=O)C(C)C)c4)CC3)c[nH]c2c1", "note": "[Example 519]", "Ki": 80.9},
      {"smiles": "CC(C)C(=O)Nc1cccc(C2CCN(CCCc3c(-c4ccccc4F)[nH]c4ccc(OC(F)(F)F)cc34)CC2)c1", "note": "[Example 695]", "Ki": 2.1},
      {"smiles": "CC(C)C(=O)Nc1cccc(C2CCN(CCCc3c[nH]c4c3ccc3ccccc34)CC2)c1", "note": "[Example 413]", "Ki": 76.8},
      {"smiles": "Cc1cccc(-n2ccc3c(CN4CCC(c5cccc(NC(=O)C(C)C)c5)CC4)cccc32)c1C", "note": "[Example 874]", "Ki": 247},
      {"smiles": "CC(C)C(=O)Nc1cccc(C2CCN(CCCCCCNC(=O)c3ccc(Oc4cc(Cl)cc(Cl)c4)o3)CC2)c1", "note": "[Example 626]", "Ki": 20.9},
      {"smiles": "COc1ccc(OC(CCCCCN2CCC(c3cccc(NC(=O)C(C)C)c3)CC2)c2ccccc2F)cc1OC", "note": "(stereo not drawn) [Example 894]", "Ki": 41.7},
      {"smiles": "CC(C)C(=O)Nc1cccc(C2CCN(CCCc3c(-c4ccccc4F)n(C)c4ccccc34)CC2)c1", "note": "[Example 709]", "Ki": 1.3},
      {"smiles": "CCC(=O)Nc1cccc(C2CCN(Cc3ccc4c(c3)c3ccccc3n4CC)CC2)c1", "note": "[Example 821]", "Ki": 12.1},
      {"smiles": "CC(C)C(=O)Nc1cccc(C2CCN(Cc3cn(-c4ccccc4Cl)c4ccccc34)CC2)c1", "note": "[Example 460]", "Ki": 9.1},
      {"smiles": "CC(C)c1ccc(C(=O)CCCN2CCC(c3cccc(NC(=O)C4CC4)c3)CC2)cc1", "note": "[Example 537]", "Ki": 67.7},
      {"smiles": "CC(C)C(=O)Nc1cccc(C2CCN(CCCc3c(-c4ccc(I)cc4)[nH]c4ccccc34)CC2)c1", "note": "[Example 750]", "Ki": 2.6}
    ]}
  ]
}
